Test results taken from patent US20230113262A1, “Peptide for cancer immunotherapy rupturing tumor-derived vesicle and use thereof” (RESEARCH & BUSINESS FOUNDATION SUNGKYUNKWAN UNIVERSITY, priority 2021, published 2023).

B1: biotin-labeled murine PD-1 protein (cat no. 71118, BPS Bioscience) (receptor, UniProt Q02242 25-167, looked up)
chain: LEVPNGPWRSLTFYPAWLTVSEGANATFTCSLSNWSEDLMLNWNRLSPSNQTEKQAAFCNGLSQPVQDARFQIIQLPNRHDFHMNILDTRRNDSGIYLCGAISLHPKAKIEESPGAELVVTERILETSTRYPSPSPKPEGRFQ
notes: also called biotin-labeled PD-1 protein

Assays:
[1] = tested on: melanoma cell line B16F10; assay: Cytotoxicity assay (MTT) in B16F10; type: cell-based, mouse; details: B16F10 cells
Experimental: (§1) First, 10^4 cells of each cell line were seeded in a 96-well plate, and cultured for 24 hours. After culturing for 4 hours in a serum-free culture medium, the peptides at each concentration were injected into the wells and further incubated for 4 hours. After discarding a supernatant, 0.5 mg/ml of MTT-containing medium was treated and then left for 2 hours, formazan crystals in the cells were dissolved in each well using dimethyl sulfoxide. Then, cytotoxicity was analyzed by measuring absorbance at 570 nm using a microplate reader.

[2] = tested on: fibroblast cell line NIH3T3; assay: Cytotoxicity assay (MTT) in NIH3T3; type: cell-based, mouse; details: NIH3T3 cells
Experimental: as §1

[3] = target: T1, PD-L1 on tumor-derived exosomes (T-EXO) isolated from the plasma of B16F10 melanoma tumor-bearing mice (mouse, UniProt Q9EP73 19-290); assay: ELISA: T-EXO captured on PD-L1 antibody-coated plate, biotin-labeled murine PD-1 (4 ug/ml) detected with streptavidin-HRP, OD 450 nm
T1 construct: whole, on cells; also called PD-L1^EXO; exosomal PD-L1
T1 sequence (Q9EP73 19-290, one chain of several): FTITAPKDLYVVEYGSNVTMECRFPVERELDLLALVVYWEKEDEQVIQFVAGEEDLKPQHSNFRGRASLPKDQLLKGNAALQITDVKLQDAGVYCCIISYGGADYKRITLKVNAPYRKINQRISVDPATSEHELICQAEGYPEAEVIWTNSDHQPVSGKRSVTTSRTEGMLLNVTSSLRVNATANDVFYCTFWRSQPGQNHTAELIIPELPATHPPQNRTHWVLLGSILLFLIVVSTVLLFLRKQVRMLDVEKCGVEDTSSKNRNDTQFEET
Experimental: After treating the plate for 2 hours, the plate was washed with PBS-T (PBS containing 0.05% Tween-20). […] Wells were washed with PBS-T three times, and treated with horseradish peroxidase-conjugated streptavidin (100 μl per well; R&D Systems) diluted in 0.5% BSA-containing PBS for 30 minutes. After washing with PBS-T, the plate was treated with tetramethylbenzidine (R&D Systems) and the reaction was stopped by adding 0.5 N H₂SO₄.

Molecule | cytotoxicity [1] | cytotoxicity ([1]; listed as AH peptide) | cytotoxicity [2] | cytotoxicity ([2]; listed as AH peptide) | binding result [3]
CC[C@@H](C)[C@@H](NC(=O)[C@@H](Cc1c[nH]c2ccccc12)NC(=O)[C@@H](CC(=O)O)NC(=O)[C@@H](Cc1c[nH]c2ccccc12)NC(=O)[C@H](NC(=O)[C@@H](CC(=O)O)NC(=O)[C@@H](CCCNC(=N)N)NC(=O)[C@@H](CC(C)C)NC(=O)[C@@H](Cc1c[nH]c2ccccc12)NC(=O)[C@@H](CO)NC(=O)CNC(=O)[C@H](N)CO)C(C)C)C(=O)N[C@H](CS)C(=O)N[C@@H](C(=O)N[C@@H](C(=O)N[C@H](CC(C)C)C(=O)N[C@@H](C(=O)N[C@H](CC(=O)O)C(=O)N[C@H](Cc1ccccc1)C(=O)N[C@H](CCCCN)C(=O)N[C@@H](C(=O)N[C@H](Cc1c[nH]c2ccccc12)C(=O)N[C@H](CC(C)C)C(=O)N[C@H](CCC(N)=O)C(=O)N[C@H](CO)C(=O)N[C@H](CCCCN)C(=O)N[C@H](CC(C)C)C(N)=O)[C@H](C)O)[C@H](C)O)C(C)C)[C@H](C)O [AH-D peptide] | neither the AH-D peptide nor the NH-D peptide has cytotoxicity | did not exhibit cytotoxicity | neither the AH-D peptide nor the NH-D peptide has cytotoxicity | did not exhibit cytotoxicity | –
CC(C)C[C@@H](NC(=O)[C@@H](CCCCN)NC(=O)[C@@H](CO)NC(=O)[C@@H](CCC(N)=O)NC(=O)[C@@H](CC(C)C)NC(=O)[C@@H](Cc1c[nH]c2ccccc12)NC(=O)[C@H](NC(=O)[C@@H](CCCCN)NC(=O)[C@@H](CC(=O)O)NC(=O)[C@@H](CC(=O)O)NC(=O)[C@H](NC(=O)[C@@H](CC(C)C)NC(=O)[C@H](NC(=O)[C@H](NC(=O)[C@@H](CS)NC(=O)[C@@H](CCC(=O)O)NC(=O)[C@@H](Cc1c[nH]c2ccccc12)NC(=O)[C@@H](CC(=O)O)NC(=O)[C@@H](Cc1c[nH]c2ccccc12)NC(=O)[C@@H](CC(=O)O)NC(=O)[C@@H](CC(=O)O)NC(=O)[C@@H](CCCNC(=N)N)NC(=O)[C@@H](CC(C)C)NC(=O)[C@@H](Cc1c[nH]c2ccccc12)NC(=O)[C@@H](CO)NC(=O)CNC(=O)[C@H](N)CO)[C@H](C)O)C(C)C)[C@H](C)O)[C@H](C)O)C(N)=O [NH-D peptide, reference compound] | neither the AH-D peptide nor the NH-D peptide has cytotoxicity | – | neither the AH-D peptide nor the NH-D peptide has cytotoxicity | – | –
B1 | – | – | – | – | binds
